{"source": "PubChem BioAssay (NCI)", "assay_in_all_cases": "DTP human tumour cell line panel, 48 h", "key": {"NCI-H23 lung": {"test_system": "NCI-H23 lung"}, "SK-MEL-28 melanoma": {"test_system": "SK-MEL-28 melanoma"}, "DMS 114 small cell lung": {"test_system": "DMS 114 small cell lung"}, "RXF 393 renal": {"test_system": "RXF 393 renal"}, "KM20L2 colon": {"test_system": "KM20L2 colon"}, "OVCAR-4 ovarian": {"test_system": "OVCAR-4 ovarian"}, "SN12C renal": {"test_system": "SN12C renal"}, "MDA-MB-435": {"test_system": "MDA-MB-435"}, "LXFL 529 NSCLC": {"test_system": "LXFL 529 NSCLC"}, "U251 CNS": {"test_system": "U251 CNS"}, "A498 renal": {"test_system": "A498 renal"}, "BT-549 breast": {"test_system": "BT-549 breast"}, "UO-31 renal": {"test_system": "UO-31 renal"}, "SNB-19 CNS": {"test_system": "SNB-19 CNS"}, "DU-145 prostate": {"test_system": "DU-145 prostate"}, "SF-295 CNS": {"test_system": "SF-295 CNS"}, "PC-3 prostate": {"test_system": "PC-3 prostate"}, "OVCAR-3 ovarian": {"test_system": "OVCAR-3 ovarian"}, "COLO 205 colon": {"test_system": "COLO 205 colon"}, "NCI-H460 lung": {"test_system": "NCI-H460 lung"}, "NCI-H226 lung": {"test_system": "NCI-H226 lung"}, "SW-620 colon": {"test_system": "SW-620 colon"}, "M19-MEL melanoma": {"test_system": "M19-MEL melanoma"}, "SF-539 CNS": {"test_system": "SF-539 CNS"}, "EKVX NSCLC": {"test_system": "EKVX NSCLC"}, "KM12 colon": {"test_system": "KM12 colon"}, "SNB-75 CNS": {"test_system": "SNB-75 CNS"}, "SK-MEL-5 melanoma": {"test_system": "SK-MEL-5 melanoma"}, "M14 melanoma": {"test_system": "M14 melanoma"}, "TK-10 renal": {"test_system": "TK-10 renal"}, "HOP-62 NSCLC": {"test_system": "HOP-62 NSCLC"}, "OVCAR-5 ovarian": {"test_system": "OVCAR-5 ovarian"}, "MCF7 breast": {"test_system": "MCF7 breast"}, "HT29 colon": {"test_system": "HT29 colon"}, "SK-MEL-2 melanoma": {"test_system": "SK-MEL-2 melanoma"}, "786-0 renal": {"test_system": "786-0 renal"}, "MALME-3M melanoma": {"test_system": "MALME-3M melanoma"}, "HCT-116 colon": {"test_system": "HCT-116 colon"}, "ACHN renal": {"test_system": "ACHN renal"}, "SF-268 CNS": {"test_system": "SF-268 CNS"}, "CAKI-1 renal": {"test_system": "CAKI-1 renal"}, "HS 578T breast": {"test_system": "HS 578T breast"}, "A549 NSCLC": {"test_system": "A549 NSCLC"}, "LOX IMVI melanoma": {"test_system": "LOX IMVI melanoma"}, "RPMI-8226 leukemia": {"test_system": "RPMI-8226 leukemia"}, "T-47D breast": {"test_system": "T-47D breast"}, "DMS 273 small cell lung": {"test_system": "DMS 273 small cell lung"}, "UACC-62 melanoma": {"test_system": "UACC-62 melanoma"}, "SR leukemia": {"test_system": "SR leukemia"}, "NCI/ADR-RES ovarian": {"test_system": "NCI/ADR-RES ovarian"}, "RXF-631 renal": {"test_system": "RXF-631 renal"}, "SNB-78 CNS": {"test_system": "SNB-78 CNS"}, "HOP-92 NSCLC": {"test_system": "HOP-92 NSCLC"}, "OVCAR-8 ovarian": {"test_system": "OVCAR-8 ovarian"}, "MDA-N": {"test_system": "MDA-N"}, "SK-OV-3 ovarian": {"test_system": "SK-OV-3 ovarian"}, "UACC-257 melanoma": {"test_system": "UACC-257 melanoma"}, "NCI-H522 lung": {"test_system": "NCI-H522 lung"}, "IGROV1 ovarian": {"test_system": "IGROV1 ovarian"}, "HCT-15 colon": {"test_system": "HCT-15 colon"}, "MDA-MB-231 breast": {"test_system": "MDA-MB-231 breast"}}, "note": "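Dose response: 5 concentrations. Exposure: 48 h. Format: 96-well plates. Endpoint: linear interpolation; highest concentration if not reached. TGI marks complete inhibition of growth.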", "data": [{"smiles": "CCN(CCCl)CCCCNc1c2ccccc2nc2ccc(OC)cc12", "values": [{"measurement": "TGI", "setting": "NCI-H23 lung", "result": 1.96, "unit": "µM"}, {"measurement": "TGI", "setting": "SK-MEL-28 melanoma", "result": 8.36, "unit": "µM"}, {"measurement": "TGI", "setting": "DMS 114 small cell lung", "result": 1.83, "unit": "µM"}, {"measurement": "TGI", "setting": "RXF 393 renal", "result": 1.7, "unit": "µM"}, {"measurement": "TGI", "setting": "KM20L2 colon", "result": 3.35, "unit": "µM"}, {"measurement": "TGI", "setting": "OVCAR-4 ovarian", "result": 2.79, "unit": "µM"}, {"measurement": "TGI", "setting": "SN12C renal", "result": 1.61, "unit": "µM"}, {"measurement": "TGI", "setting": "MDA-MB-435", "result": 2.12, "unit": "µM"}, {"measurement": "TGI", "setting": "LXFL 529 NSCLC", "result": 1.76, "unit": "µM"}, {"measurement": "TGI", "setting": "U251 CNS", "result": 1.72, "unit": "µM"}, {"measurement": "TGI", "setting": "A498 renal", "result": 0.875, "unit": "µM"}, {"measurement": "TGI", "setting": "BT-549 breast", "result": 7.41, "unit": "µM"}, {"measurement": "TGI", "setting": "UO-31 renal", "result": 4.51, "unit": "µM"}, {"measurement": "TGI", "setting": "SNB-19 CNS", "result": 3.34, "unit": "µM"}, {"measurement": "TGI", "setting": "DU-145 prostate", "result": 1.74, "unit": "µM"}, {"measurement": "TGI", "setting": "SF-295 CNS", "result": 3.64, "unit": "µM"}, {"measurement": "TGI", "setting": "PC-3 prostate", "result": 1.14, "unit": "µM"}, {"measurement": "TGI", "setting": "OVCAR-3 ovarian", "result": 3.78, "unit": "µM"}, {"measurement": "TGI", "setting": "COLO 205 colon", "result": 3.63, "unit": "µM"}, {"measurement": "TGI", "setting": "NCI-H460 lung", "result": 1.39, "unit": "µM"}, {"measurement": "TGI", "setting": "NCI-H226 lung", "result": 1.08, "unit": "µM"}, {"measurement": "TGI", "setting": "SW-620 colon", "result": 1.63, "unit": "µM"}, {"measurement": "TGI", "setting": "M19-MEL melanoma", "result": 1.68, "unit": "µM"}, {"measurement": "TGI", "setting": "SF-539 CNS", "result": 4.69, "unit": "µM"}, {"measurement": "TGI", "setting": "EKVX NSCLC", "result": 3.15, "unit": "µM"}, {"measurement": "TGI", "setting": "KM12 colon", "result": 1.82, "unit": "µM"}, {"measurement": "TGI", "setting": "SNB-75 CNS", "result": 2.14, "unit": "µM"}, {"measurement": "TGI", "setting": "SK-MEL-5 melanoma", "result": 1.98, "unit": "µM"}, {"measurement": "TGI", "setting": "M14 melanoma", "result": 2.92, "unit": "µM"}, {"measurement": "TGI", "setting": "TK-10 renal", "result": 5.22, "unit": "µM"}, {"measurement": "TGI", "setting": "HOP-62 NSCLC", "result": 3.71, "unit": "µM"}, {"measurement": "TGI", "setting": "OVCAR-5 ovarian", "result": 2.96, "unit": "µM"}, {"measurement": "TGI", "setting": "MCF7 breast", "result": 0.935, "unit": "µM"}, {"measurement": "TGI", "setting": "HT29 colon", "result": 3.31, "unit": "µM"}, {"measurement": "TGI", "setting": "SK-MEL-2 melanoma", "result": 2.48, "unit": "µM"}, {"measurement": "TGI", "setting": "786-0 renal", "result": 1.56, "unit": "µM"}, {"measurement": "TGI", "setting": "MALME-3M melanoma", "result": 2.89, "unit": "µM"}, {"measurement": "TGI", "setting": "HCT-116 colon", "result": 1.29, "unit": "µM"}, {"measurement": "TGI", "setting": "ACHN renal", "result": 1.72, "unit": "µM"}, {"measurement": "TGI", "setting": "SF-268 CNS", "result": 1.36, "unit": "µM"}, {"measurement": "TGI", "setting": "CAKI-1 renal", "result": 1.89, "unit": "µM"}, {"measurement": "TGI", "setting": "HS 578T breast", "result": "> 100", "unit": "µM"}, {"measurement": "TGI", "setting": "A549 NSCLC", "result": 2.27, "unit": "µM"}, {"measurement": "TGI", "setting": "LOX IMVI melanoma", "result": 1.52, "unit": "µM"}, {"measurement": "TGI", "setting": "RPMI-8226 leukemia", "result": 4.08, "unit": "µM"}, {"measurement": "TGI", "setting": "T-47D breast", "result": 1.5, "unit": "µM"}, {"measurement": "TGI", "setting": "DMS 273 small cell lung", "result": 1.44, "unit": "µM"}, {"measurement": "TGI", "setting": "UACC-62 melanoma", "result": 1.59, "unit": "µM"}, {"measurement": "TGI", "setting": "SR leukemia", "result": 1.55, "unit": "µM"}, {"measurement": "TGI", "setting": "NCI/ADR-RES ovarian", "result": "> 100", "unit": "µM"}, {"measurement": "TGI", "setting": "RXF-631 renal", "result": 4.51, "unit": "µM"}, {"measurement": "TGI", "setting": "SNB-78 CNS", "result": 4.07, "unit": "µM"}, {"measurement": "TGI", "setting": "HOP-92 NSCLC", "result": 0.886, "unit": "µM"}, {"measurement": "TGI", "setting": "OVCAR-8 ovarian", "result": 1.94, "unit": "µM"}, {"measurement": "TGI", "setting": "MDA-N", "result": 2.96, "unit": "µM"}, {"measurement": "TGI", "setting": "SK-OV-3 ovarian", "result": 2.77, "unit": "µM"}, {"measurement": "TGI", "setting": "UACC-257 melanoma", "result": 10.5, "unit": "µM"}, {"measurement": "TGI", "setting": "NCI-H522 lung", "result": 1.43, "unit": "µM"}, {"measurement": "TGI", "setting": "IGROV1 ovarian", "result": 2.05, "unit": "µM"}, {"measurement": "TGI", "setting": "HCT-15 colon", "result": 5.43, "unit": "µM"}, {"measurement": "TGI", "setting": "MDA-MB-231 breast", "result": 3.99, "unit": "µM"}]}]}
